# Values of other authors as cited in patent US20250057795A1 (priority 2023, published 2025).
# Where two headings read alike, the source gives them in different places.
# Key:
# GPR143 [1] = target: T1, GPR143 (Homo sapiens, UniProt P51810); conditions: retinal pigment epithelial cells
# GPR143 [2] = target: T1, GPR143
# GPR143 [3] = target: T1, GPR143; conditions: same site as L-DOPA
# [4] = compared with Levodopa; due to increased solubility
# T1 sequence (P51810 whole entry): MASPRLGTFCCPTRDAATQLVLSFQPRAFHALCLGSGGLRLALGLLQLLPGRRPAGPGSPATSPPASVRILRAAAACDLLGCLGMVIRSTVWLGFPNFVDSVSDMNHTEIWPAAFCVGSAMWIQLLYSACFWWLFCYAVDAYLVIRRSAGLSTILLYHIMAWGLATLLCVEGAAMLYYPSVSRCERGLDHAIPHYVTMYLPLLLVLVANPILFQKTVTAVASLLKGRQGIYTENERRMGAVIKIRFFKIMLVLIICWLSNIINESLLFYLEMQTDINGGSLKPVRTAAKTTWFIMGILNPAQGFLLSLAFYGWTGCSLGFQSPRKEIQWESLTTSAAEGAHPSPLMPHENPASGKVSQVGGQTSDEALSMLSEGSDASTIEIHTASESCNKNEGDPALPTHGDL
compound,measurement,setting,value
COc1ccc2[nH]cc(CCNC(C)=O)c2c1 [Melatonin],water solubility,,practically insoluble
N[C@@H](Cc1ccc(O)c(O)c1)C(=O)O [Levodopa],release / production of VEGF (and exosomes),GPR143 [1],downregulates the production of VEGF
same,release of PEDF,GPR143 [1],significantly upregulates
same,release of PEDF,GPR143 [1]; listed as L-DOPA,stimulated the release of PEDF
same,need for anti-VEGF injections,"GPR143 [2]; continued Levodopa therapy, compared to historical controls",decreased need for anti-VEGF injections
same,vision,"GPR143 [2]; new onset nAMD, naive to anti-VEGF, 1 month",improved vision
NCCc1ccc(O)c(O)c1 [dopamine],release / production of VEGF (and exosomes),GPR143 [1],stimulated the release of VEGF and exosomes
same,affinity for GPR143,GPR143 [3],near-equal affinity to L-DOPA
CCOC(=O)[C@@H](N)Cc1ccc(O)c(O)c1 [Etilevodopa],ocular penetration,[4],increased ocular penetration
